{"source": "PubChem BioAssay (NCI)", "test_in_all_cases": "growth of human tumour cells (NCI), 48 h", "key": {"MALME-3M melanoma": {"tested_on": "MALME-3M melanoma"}, "DMS 114 small cell lung": {"tested_on": "DMS 114 small cell lung"}, "LOX IMVI melanoma": {"tested_on": "LOX IMVI melanoma"}, "RXF 393 renal": {"tested_on": "RXF 393 renal"}, "SK-MEL-5 melanoma": {"tested_on": "SK-MEL-5 melanoma"}, "BT-549 breast": {"tested_on": "BT-549 breast"}, "UACC-257 melanoma": {"tested_on": "UACC-257 melanoma"}, "CCRF-CEM leukemia": {"tested_on": "CCRF-CEM leukemia"}, "M19-MEL melanoma": {"tested_on": "M19-MEL melanoma"}, "ACHN renal": {"tested_on": "ACHN renal"}, "RPMI-8226 leukemia": {"tested_on": "RPMI-8226 leukemia"}, "UACC-62 melanoma": {"tested_on": "UACC-62 melanoma"}, "MDA-N": {"tested_on": "MDA-N"}, "TK-10 renal": {"tested_on": "TK-10 renal"}, "SF-295 CNS": {"tested_on": "SF-295 CNS"}, "A498 renal": {"tested_on": "A498 renal"}, "HS 578T breast": {"tested_on": "HS 578T breast"}, "MDA-MB-231 breast": {"tested_on": "MDA-MB-231 breast"}, "K-562 leukemia": {"tested_on": "K-562 leukemia"}, "CAKI-1 renal": {"tested_on": "CAKI-1 renal"}, "M14 melanoma": {"tested_on": "M14 melanoma"}, "SK-MEL-28 melanoma": {"tested_on": "SK-MEL-28 melanoma"}, "SK-MEL-2 melanoma": {"tested_on": "SK-MEL-2 melanoma"}, "HL-60(TB) leukemia": {"tested_on": "HL-60(TB) leukemia"}, "HCC-2998 colon": {"tested_on": "HCC-2998 colon"}, "OVCAR-3 ovarian": {"tested_on": "OVCAR-3 ovarian"}, "SNB-19 CNS": {"tested_on": "SNB-19 CNS"}, "LXFL 529 NSCLC": {"tested_on": "LXFL 529 NSCLC"}, "DU-145 prostate": {"tested_on": "DU-145 prostate"}, "MDA-MB-435": {"tested_on": "MDA-MB-435"}, "DMS 273 small cell lung": {"tested_on": "DMS 273 small cell lung"}, "OVCAR-4 ovarian": {"tested_on": "OVCAR-4 ovarian"}, "NCI-H226 lung": {"tested_on": "NCI-H226 lung"}, "NCI-H522 lung": {"tested_on": "NCI-H522 lung"}, "786-0 renal": {"tested_on": "786-0 renal"}, "MOLT-4 leukemia": {"tested_on": "MOLT-4 leukemia"}, "HT29 colon": {"tested_on": "HT29 colon"}, "COLO 205 colon": {"tested_on": "COLO 205 colon"}, "HOP-62 NSCLC": {"tested_on": "HOP-62 NSCLC"}, "U251 CNS": {"tested_on": "U251 CNS"}, "PC-3 prostate": {"tested_on": "PC-3 prostate"}, "KM12 colon": {"tested_on": "KM12 colon"}, "SN12C renal": {"tested_on": "SN12C renal"}, "DLD-1 colon": {"tested_on": "DLD-1 colon"}, "NCI-H460 lung": {"tested_on": "NCI-H460 lung"}, "EKVX NSCLC": {"tested_on": "EKVX NSCLC"}, "SK-OV-3 ovarian": {"tested_on": "SK-OV-3 ovarian"}, "OVCAR-8 ovarian": {"tested_on": "OVCAR-8 ovarian"}, "NCI-H23 lung": {"tested_on": "NCI-H23 lung"}, "SF-539 CNS": {"tested_on": "SF-539 CNS"}, "SF-268 CNS": {"tested_on": "SF-268 CNS"}, "IGROV1 ovarian": {"tested_on": "IGROV1 ovarian"}, "HOP-92 NSCLC": {"tested_on": "HOP-92 NSCLC"}, "HCT-116 colon": {"tested_on": "HCT-116 colon"}, "T-47D breast": {"tested_on": "T-47D breast"}, "A549 NSCLC": {"tested_on": "A549 NSCLC"}, "OVCAR-5 ovarian": {"tested_on": "OVCAR-5 ovarian"}, "SNB-75 CNS": {"tested_on": "SNB-75 CNS"}, "UO-31 renal": {"tested_on": "UO-31 renal"}, "NCI/ADR-RES ovarian": {"tested_on": "NCI/ADR-RES ovarian"}, "MCF7 breast": {"tested_on": "MCF7 breast"}, "SR leukemia": {"tested_on": "SR leukemia"}, "SW-620 colon": {"tested_on": "SW-620 colon"}, "HCT-15 colon": {"tested_on": "HCT-15 colon"}}, "note": "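The compound was tested at five concentrations on cells cultured in 96-well plates, with a 48-hour exposure period. TGI marks complete inhibition of growth.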"}
{"smiles": "CCN(CC)CCNc1ccc2nc(C)n3c4ccc(OC)cc4c(=O)c1c23", "values": [{"measurement": "TGI", "setting": "MALME-3M melanoma", "result": 21.7, "unit": "µM"}, {"measurement": "TGI", "setting": "DMS 114 small cell lung", "result": 14.6, "unit": "µM"}, {"measurement": "TGI", "setting": "LOX IMVI melanoma", "result": 2.55, "unit": "µM"}, {"measurement": "TGI", "setting": "RXF 393 renal", "result": 10.5, "unit": "µM"}, {"measurement": "TGI", "setting": "SK-MEL-5 melanoma", "result": 19.1, "unit": "µM"}, {"measurement": "TGI", "setting": "BT-549 breast", "result": 22.5, "unit": "µM"}, {"measurement": "TGI", "setting": "UACC-257 melanoma", "result": 22.3, "unit": "µM"}, {"measurement": "TGI", "setting": "CCRF-CEM leukemia", "result": 1.19, "unit": "µM"}, {"measurement": "TGI", "setting": "M19-MEL melanoma", "result": 19.5, "unit": "µM"}, {"measurement": "TGI", "setting": "ACHN renal", "result": 13.3, "unit": "µM"}, {"measurement": "TGI", "setting": "RPMI-8226 leukemia", "result": 5.34, "unit": "µM"}, {"measurement": "TGI", "setting": "UACC-62 melanoma", "result": 20, "unit": "µM"}, {"measurement": "TGI", "setting": "MDA-N", "result": 17.2, "unit": "µM"}, {"measurement": "TGI", "setting": "TK-10 renal", "result": 4.75, "unit": "µM"}, {"measurement": "TGI", "setting": "SF-295 CNS", "result": 7.82, "unit": "µM"}, {"measurement": "TGI", "setting": "A498 renal", "result": 20.6, "unit": "µM"}, {"measurement": "TGI", "setting": "HS 578T breast", "result": 6.68, "unit": "µM"}, {"measurement": "TGI", "setting": "MDA-MB-231 breast", "result": 16.9, "unit": "µM"}, {"measurement": "TGI", "setting": "K-562 leukemia", "result": 4.13, "unit": "µM"}, {"measurement": "TGI", "setting": "CAKI-1 renal", "result": 13, "unit": "µM"}, {"measurement": "TGI", "setting": "M14 melanoma", "result": 24.1, "unit": "µM"}, {"measurement": "TGI", "setting": "SK-MEL-28 melanoma", "result": 25.9, "unit": "µM"}, {"measurement": "TGI", "setting": "SK-MEL-2 melanoma", "result": 28, "unit": "µM"}, {"measurement": "TGI", "setting": "HL-60(TB) leukemia", "result": 2.96, "unit": "µM"}, {"measurement": "TGI", "setting": "HCC-2998 colon", "result": 6.2, "unit": "µM"}, {"measurement": "TGI", "setting": "OVCAR-3 ovarian", "result": 19.8, "unit": "µM"}, {"measurement": "TGI", "setting": "SNB-19 CNS", "result": 13.7, "unit": "µM"}, {"measurement": "TGI", "setting": "LXFL 529 NSCLC", "result": 17.5, "unit": "µM"}, {"measurement": "TGI", "setting": "DU-145 prostate", "result": 13.3, "unit": "µM"}, {"measurement": "TGI", "setting": "MDA-MB-435", "result": 27.1, "unit": "µM"}, {"measurement": "TGI", "setting": "DMS 273 small cell lung", "result": 11.5, "unit": "µM"}, {"measurement": "TGI", "setting": "OVCAR-4 ovarian", "result": 8.25, "unit": "µM"}, {"measurement": "TGI", "setting": "NCI-H226 lung", "result": 7.11, "unit": "µM"}, {"measurement": "TGI", "setting": "NCI-H522 lung", "result": 2.74, "unit": "µM"}, {"measurement": "TGI", "setting": "786-0 renal", "result": 7.88, "unit": "µM"}, {"measurement": "TGI", "setting": "MOLT-4 leukemia", "result": 1.15, "unit": "µM"}, {"measurement": "TGI", "setting": "HT29 colon", "result": 1.99, "unit": "µM"}, {"measurement": "TGI", "setting": "COLO 205 colon", "result": 13, "unit": "µM"}, {"measurement": "TGI", "setting": "HOP-62 NSCLC", "result": 21.7, "unit": "µM"}, {"measurement": "TGI", "setting": "U251 CNS", "result": 20.6, "unit": "µM"}, {"measurement": "TGI", "setting": "PC-3 prostate", "result": 17.5, "unit": "µM"}, {"measurement": "TGI", "setting": "KM12 colon", "result": 14.6, "unit": "µM"}, {"measurement": "TGI", "setting": "SN12C renal", "result": 15.2, "unit": "µM"}, {"measurement": "TGI", "setting": "DLD-1 colon", "result": 10.9, "unit": "µM"}, {"measurement": "TGI", "setting": "NCI-H460 lung", "result": 2.42, "unit": "µM"}, {"measurement": "TGI", "setting": "EKVX NSCLC", "result": 13.9, "unit": "µM"}, {"measurement": "TGI", "setting": "SK-OV-3 ovarian", "result": 19.5, "unit": "µM"}, {"measurement": "TGI", "setting": "OVCAR-8 ovarian", "result": 9.25, "unit": "µM"}, {"measurement": "TGI", "setting": "NCI-H23 lung", "result": 18.3, "unit": "µM"}, {"measurement": "TGI", "setting": "SF-539 CNS", "result": 18.7, "unit": "µM"}, {"measurement": "TGI", "setting": "SF-268 CNS", "result": 15.3, "unit": "µM"}, {"measurement": "TGI", "setting": "IGROV1 ovarian", "result": 4.26, "unit": "µM"}, {"measurement": "TGI", "setting": "HOP-92 NSCLC", "result": 20.7, "unit": "µM"}, {"measurement": "TGI", "setting": "HCT-116 colon", "result": 6, "unit": "µM"}, {"measurement": "TGI", "setting": "T-47D breast", "result": 33.8, "unit": "µM"}, {"measurement": "TGI", "setting": "A549 NSCLC", "result": 15, "unit": "µM"}, {"measurement": "TGI", "setting": "OVCAR-5 ovarian", "result": 20.3, "unit": "µM"}, {"measurement": "TGI", "setting": "SNB-75 CNS", "result": 19, "unit": "µM"}, {"measurement": "TGI", "setting": "UO-31 renal", "result": 16.3, "unit": "µM"}, {"measurement": "TGI", "setting": "NCI/ADR-RES ovarian", "result": 15.1, "unit": "µM"}, {"measurement": "TGI", "setting": "MCF7 breast", "result": 6.57, "unit": "µM"}, {"measurement": "TGI", "setting": "SR leukemia", "result": 0.56, "unit": "µM"}, {"measurement": "TGI", "setting": "SW-620 colon", "result": 9.27, "unit": "µM"}, {"measurement": "TGI", "setting": "HCT-15 colon", "result": 10.3, "unit": "µM"}]}
